These are literature values, as cited in patent publication US20190328656A1, “TARGETED DELIVERY OF PROGESTINS AND ESTROGENS VIA VAGINAL RING DEVICES FOR FERTILITY CONTROL AND HRT PRODUCTS” (Evestra, Inc., priority 2018, published 2019).

For data set [1] the following is noted: elimination from the blood stream.
The conditions of data set [2]: compared to estriol.

`C[C@]12CC[C@@H]3c4ccc(O)cc4CC[C@H]3[C@@H]1CC[C@@H]2O` [17-beta estradiol]: the half-life result in data set [1] was “around 1 hour”.

Regarding `C[C@]12CC[C@@H]3c4ccc(O)cc4CC[C@H]3[C@@H]1[C@@H](O)[C@@H](O)[C@@H]2O` [Estetrol], the estrogenic activity entry in data set [2] is “very weak estrogenic activity”.
